Measured values reported in patent US9757379B2, “Inhibition of HIF-2α heterodimerization with HIF1β (ARNT)” (The Board of Regents of the University of Texas System, priority 2012, dated 2017).
pIC50, pKd: −log10 of the molar value. “Also recorded” adds a separate entry of the source.

Tests used:
VEGF [1] = experiment: HIF-2 target gene (VEGF) expression in 786-0 cells, RT-PCR; assay type: cell-based, human; details: 18 hr
Text: (§1) 786-0 cells, derived from a human renal cell carcinoma, lack functional pVHL and constitutively accumulate HIF-2α under normoxic conditions. These cells also lack detectable HIF-1α expression so that HIF-dependent regulation of target genes is attributable to HIF-2α isoform.

HIF-1α = biological target: T1, HIF-1α (Homo sapiens, UniProt Q16665); experiment: ChIP, HIF-1α DNA binding in cultured cells; assay type: cell-based; details: 10 μM, hypoxic conditions
T1 construct: endogenous in cells
T1 sequence (Q16665 whole entry): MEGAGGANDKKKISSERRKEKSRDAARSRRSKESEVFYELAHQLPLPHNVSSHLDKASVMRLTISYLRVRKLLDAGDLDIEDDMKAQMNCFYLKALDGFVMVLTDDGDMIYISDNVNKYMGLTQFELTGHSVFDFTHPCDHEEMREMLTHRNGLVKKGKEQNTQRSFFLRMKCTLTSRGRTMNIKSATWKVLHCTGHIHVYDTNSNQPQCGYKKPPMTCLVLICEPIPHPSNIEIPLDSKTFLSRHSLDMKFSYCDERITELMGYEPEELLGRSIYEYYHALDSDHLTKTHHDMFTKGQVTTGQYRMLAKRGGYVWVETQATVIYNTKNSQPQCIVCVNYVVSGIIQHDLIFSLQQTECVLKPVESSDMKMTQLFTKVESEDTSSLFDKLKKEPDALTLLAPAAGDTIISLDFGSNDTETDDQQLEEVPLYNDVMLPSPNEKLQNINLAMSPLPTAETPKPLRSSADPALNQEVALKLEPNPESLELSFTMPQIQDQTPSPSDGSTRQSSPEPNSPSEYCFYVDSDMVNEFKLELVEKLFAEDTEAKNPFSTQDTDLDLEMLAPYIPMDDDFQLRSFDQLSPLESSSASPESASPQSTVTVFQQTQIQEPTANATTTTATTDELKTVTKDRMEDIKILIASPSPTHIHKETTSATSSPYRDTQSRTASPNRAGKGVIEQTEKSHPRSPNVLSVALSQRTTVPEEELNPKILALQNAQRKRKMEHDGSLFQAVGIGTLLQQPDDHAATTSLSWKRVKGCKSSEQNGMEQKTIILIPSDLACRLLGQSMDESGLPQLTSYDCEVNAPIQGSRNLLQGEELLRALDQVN
T1 sequence (P27540 2-789 partner limits assumed): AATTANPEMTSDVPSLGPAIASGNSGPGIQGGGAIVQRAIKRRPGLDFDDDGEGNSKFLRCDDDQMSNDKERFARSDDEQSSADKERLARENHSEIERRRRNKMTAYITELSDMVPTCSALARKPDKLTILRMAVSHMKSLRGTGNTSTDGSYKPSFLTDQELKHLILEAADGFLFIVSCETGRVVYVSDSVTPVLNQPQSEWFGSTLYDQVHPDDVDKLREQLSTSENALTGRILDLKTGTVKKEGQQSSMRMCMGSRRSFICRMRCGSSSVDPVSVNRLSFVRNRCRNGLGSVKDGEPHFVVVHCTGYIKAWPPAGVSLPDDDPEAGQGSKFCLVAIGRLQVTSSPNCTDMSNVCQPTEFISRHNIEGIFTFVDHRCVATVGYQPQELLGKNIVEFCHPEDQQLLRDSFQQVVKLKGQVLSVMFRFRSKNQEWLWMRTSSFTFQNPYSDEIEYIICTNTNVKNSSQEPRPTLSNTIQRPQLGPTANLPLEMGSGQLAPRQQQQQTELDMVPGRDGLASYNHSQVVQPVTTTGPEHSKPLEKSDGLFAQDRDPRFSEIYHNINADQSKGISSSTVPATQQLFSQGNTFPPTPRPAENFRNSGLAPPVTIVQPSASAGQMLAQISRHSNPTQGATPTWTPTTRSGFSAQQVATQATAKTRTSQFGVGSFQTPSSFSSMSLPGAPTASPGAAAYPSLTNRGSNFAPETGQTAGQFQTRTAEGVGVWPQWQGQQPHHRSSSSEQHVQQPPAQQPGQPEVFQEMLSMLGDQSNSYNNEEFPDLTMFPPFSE
Experimental: (§2) Chromatin immunoprecipation (ChIP) using antibodies raised against HIF-1α or HIF-2α was used to measure HIF DNA binding in cultured cells.
(§3) Proc Natl Acad Sci USA 106, 4260-4265 (2009) using the ChIP-IT Express Enzymatic Kit (Active Motif) according to the manufacturer's protocol. ChIP assays were carried out using normal mouse IgG (Santa Cruz Biotechnology), anti-HIF-2α mouse monoclonal antibody (Novus Biologicals), or anti-HIF-1α mouse monoclonal antibody (BD Biosciences). The precipitated genomic DNA was analyzed by qPCR using the primers for a human EPO enhancer amplicon ([…]; […]). The captured genomic DNA was measured by normalizing with that of input material and compared between sample.

[2] = biological target: HIF-2α PAS-B*/ARNT PAS-B* heterodimer (Homo sapiens, UniProt Q99814, R247E); experiment: AlphaScreen, HIF-2α PAS-B*/ARNT PAS-B* heterodimerization;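 note: GST-tagged HIF-2α PAS-B* and FLAG-tagged ARNT PAS-B* with glutathione donor and anti-FLAG acceptor beads, luminescence after 680 nm excitation, loss of signal indicating disrupted heterodimer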
HIF-2α PAS-B*/ARNT PAS-B* heterodimer, sequence (Q99814 240-350 R247E, one chain of several): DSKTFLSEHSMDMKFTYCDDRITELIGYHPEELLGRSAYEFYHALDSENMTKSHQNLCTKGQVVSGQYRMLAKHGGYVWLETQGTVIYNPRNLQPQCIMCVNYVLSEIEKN
Text: (FIG. 8a) As shown in the cartoon schematic, interactions between GST-tagged HIF-2α (green) and FLAG-tagged ARNT (blue) PAS-B* domains recruit both donor beads (D), coated with glutathione, and acceptor beads (A), coated with anti-FLAG antibodies, to one another. Upon illumination with red (680 nm) light, donor beads will generate short-lived singlet oxygen (^1O2). Nearby (<200 nm) acceptor beads can react with ^1O2 to emit light at shorter wavelengths (top). Compounds that disrupt the complex correspondingly eliminate this signal (bottom). Compounds that non-specifically interfere with the AlphaScreen assay can be identified with a counterscreen in which the ARNT PAS-B* domain was simultaneously tagged with both the GST and FLAG tags. (FIG. 8b) The AlphaScreen signal (relative units; RU) reflecting protein-protein interactions between 25 (open triangles), 50 (open circles) or 100 (closed circles) nM HIF-2α PAS-B* increases with increasing concentrations of ARNT PAS-B*. At the highest ARNT PAS-B* concentrations, a decrease in signal reflects the hook effect. At these concentrations, protein binding to the acceptor beads has become saturated and free ARNT PAS-B* competes with the coated acceptor beads for the donor beads bound to HIF-2α PAS-B*. […] Assays were performed in triplicate and the error bars represent±SD.
Inhibition of heterodimerization of HIF-2α to HIF1β (ARNT) may be determined in an Amplified Luminescent Proximity Homogeneous Assay (AlphaScreen).
The AlphaScreen assay can be done according to the following procedures: • 1. Prepare cold binding buffer solution: 20 mM Tris-Cl (pH=7.5), 100 mM NaCl, 1 mM DTT, 0.02% Tween-20 (final concentration) and place on ice to keep temperature approximately 4° C. • 2. Prepare Protein Mix: To a 50 mL conical tube add 23 mL of cold buffer and 0.04 mL of both GST-HIF2α PASB* (100 μM) and ARNT-PASB*-Flag (100 μM). • 3. Distribute to 96 well plate: Add 60 μL of protein mix to each wells. • 4. Adding Compound: Dissolve compounds in DMSO to obtain a final concentration of 10 mM. Then create the appropriate dilutions for your particular compound in glass vials. Once all the dilutions are ready place 1 μL of compound in each well. • 5. Prepare Bead mix: In the dark room using green light only create a tube with 3.84 mL of cold buffer and 3 μL of GST Donor beads and Flag acceptor beads. • 6. Distribute Bead mix: Invert the tube a couple times before distributing 40 μL of mix to each well. • 7. Incubation: After adding beads wrap the plate in tin foil twice and remove the covered plate from dark room. Incubate the plate at room temperature while rocking gently for 4 hours. • 8. Read: After 4 hours place the uncovered plate in the plate reader. Make sure the room is relatively tree of white light when placing the plate in the machine. It is ok to have the green light on if needed. • 9. […] Flag acceptor beads should be aliquoted into small opaque tubes (20-50 μl per tube) upon arrival from the manufacturer. Place both sets of beads in 4° C. storage when not in use. • 11. Avoid expose beads to white light. • 12. Pipette beads up and down several times before adding to a tube of cold buffer solution. • 13. Amount of Beads used for Bead mix may vary from batch to batch.

HIF-2α [3] = experiment: ChIP, HIF-2α DNA binding in cultured cells; assay type: cell-based, human; details: 10 μM, hypoxic conditions
Experimental: as §2, §3

786-0 cells = experiment: Cell viability, ATP levels by Cell Titer Glo; assay type: cell-based, human; details: 24 hr, as much as 30 μM
Experimental: Assays were performed in triplicates and the error bars represent±SD.
as §1

HIF-1α PAS-B = HIF-1α PAS-B (Homo sapiens, UniProt Q16665); experiment: Isothermal titration calorimetry (ITC) on HIF-1α PAS-B; assay type: binding; details: same conditions as for HIF-2α PAS-B
HIF-1α PAS-B, sequence (Q16665 238-349): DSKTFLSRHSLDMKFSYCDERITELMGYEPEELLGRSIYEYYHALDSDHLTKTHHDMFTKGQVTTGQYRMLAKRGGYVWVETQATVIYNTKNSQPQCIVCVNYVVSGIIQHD
Text: (§4) Ensuing allosteric conformational changes propagate to the surface of the domain, weakening interactions with the ARNT PAS-B domain and disrupting heterodimerization of the full length HIF-2 transcription factor.

HIF-2α [4] = experiment: HIF-2α expression in 786-0 cells (RT-PCR, immunoblot); assay type: cell-based, human; details: normoxic 786-0 cells
Text: as §1

PGK1 = PGK1 mRNA expression in Hep3B cells (HIF-1α marker); assay type: cell-based; details: 1 or 10 μM, hypoxic (1% O2) 6 or 12 hr
EPO = EPO mRNA expression in Hep3B cells (HIF-2α marker); assay type: cell-based; details: 1 or 10 μM, hypoxic (1% O2) 6 or 12 hr
HIF-2α or HIF-1α mRNA = experiment: HIF-1α and HIF-2α mRNA levels in Hep3B cells, RT-PCR; assay type: cell-based
VEGF [5] = experiment: VEGF protein secretion by ELISA, 786-O cells; assay type: cell-based, human; details: about 18 hours, 0.00655-20 μM
Experimental: VEGF protein secretion was measured by ELISA following incubation of cultured 786-O cells for about eighteen (18) hours with Compund (1) (FIG. 19a) or with Compound (47) (FIG. 19b).

GST-ARNT-PAS-B*-FLAG = GST-ARNT-PAS-B*-FLAG (Homo sapiens, UniProt P27540, E362R); experiment: AlphaScreen control reaction with doubly tagged protein; assay type: biochemical; details: single doubly tagged protein
GST-ARNT-PAS-B*-FLAG, sequence (P27540 355-470 E362R): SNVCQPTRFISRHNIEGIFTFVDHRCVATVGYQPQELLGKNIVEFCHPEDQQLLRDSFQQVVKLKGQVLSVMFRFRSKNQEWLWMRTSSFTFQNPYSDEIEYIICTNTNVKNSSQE
Text: Upon illumination with red (680 nm) light, donor beads will generate short-lived singlet oxygen (^1O2). Nearby (<200 nm) acceptor beads can react with ^1O2 to emit light at shorter wavelengths (top). Compounds that disrupt the complex correspondingly eliminate this signal (bottom). Compounds that non-specifically interfere with the AlphaScreen assay can be identified with a counterscreen in which the ARNT PAS-B* domain was simultaneously tagged with both the GST and FLAG tags. […] At these concentrations, protein binding to the acceptor beads has become saturated and free ARNT PAS-B* competes with the coated acceptor beads for the donor beads bound to HIF-2α PAS-B*. […] Assays were performed in triplicate and the error bars represent±SD.

HIF-1 heterodimerization = biological target: T2, HIF-1 heterodimerization (Homo sapiens, UniProt Q16665); experiment: Co-IP of HIF-1α with ARNT, nuclear extracts of hypoxic Hep3B cells; assay type: biochemical; details: increasing amounts
T2 construct: Nuclear extracts prepared from hypoxic Hep3B cells expressing ARNT, HIF-1α, and HIF-2α (input); endogenous in cells; host or cells: Hep3B (hypoxic), nuclear extracts
T2 sequence (Q16665 whole entry): as the sequence (Q16665 whole entry) above
T2 sequence (P27540 2-789 partner limits assumed): as the sequence (P27540 2-789 partner limits assumed) above
Text: as §4

[6] = biological target: T3, full length HIF-2α and ARNT (Homo sapiens, UniProt Q99814); experiment: Co-IP of HIF-2α with ARNT, nuclear extracts of hypoxic Hep3B cells; assay type: biochemical; details: increasing concentrations
T3 construct: heterodimerization between full length HIF-2α and ARNT polypeptides; endogenous in cells; host or cells: Hep3B (hypoxic), nuclear extracts
T3 sequence (Q99814 whole entry): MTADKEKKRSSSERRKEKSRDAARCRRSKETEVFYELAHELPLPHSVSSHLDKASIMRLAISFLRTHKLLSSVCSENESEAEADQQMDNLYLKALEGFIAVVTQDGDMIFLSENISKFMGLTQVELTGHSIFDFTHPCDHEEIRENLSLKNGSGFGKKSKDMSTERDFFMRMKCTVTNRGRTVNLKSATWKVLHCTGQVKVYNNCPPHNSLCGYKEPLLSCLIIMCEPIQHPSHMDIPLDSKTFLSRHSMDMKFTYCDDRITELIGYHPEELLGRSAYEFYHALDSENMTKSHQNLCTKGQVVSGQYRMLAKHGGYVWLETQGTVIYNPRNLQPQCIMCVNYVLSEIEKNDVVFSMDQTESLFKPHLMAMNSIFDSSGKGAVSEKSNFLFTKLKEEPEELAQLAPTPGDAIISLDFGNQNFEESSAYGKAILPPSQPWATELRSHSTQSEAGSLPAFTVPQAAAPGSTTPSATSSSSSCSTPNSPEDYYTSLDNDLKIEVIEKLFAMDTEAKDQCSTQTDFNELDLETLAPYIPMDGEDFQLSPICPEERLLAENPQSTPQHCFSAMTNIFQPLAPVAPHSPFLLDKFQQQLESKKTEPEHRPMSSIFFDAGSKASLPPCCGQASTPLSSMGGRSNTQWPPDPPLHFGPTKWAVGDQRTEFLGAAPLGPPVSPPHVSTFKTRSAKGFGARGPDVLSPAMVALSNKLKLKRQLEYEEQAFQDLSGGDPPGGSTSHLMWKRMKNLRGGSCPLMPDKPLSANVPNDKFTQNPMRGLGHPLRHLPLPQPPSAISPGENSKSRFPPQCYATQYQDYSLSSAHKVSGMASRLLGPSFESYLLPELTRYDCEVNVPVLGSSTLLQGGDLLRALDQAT
Experimental: An antibody recognizing the N-terminus of ARNT, was used to immunoprecipitate (IP) the endogenous ARNT protein from the nuclear extracts (FIG. 17 b; top panel).
Co-IP: Nuclear protein extraction and co-IP experiments were performed as reported in Semenza, G. L. Hypoxia-inducible factors: mediators of cancer progression and targets for cancer therapy. […] The following antibodies were used for immunoblot analysis: anti-HIF-1α mouse monoclonal antibody (BD Biosciences); anti-EPAS/HIF-2α mouse monoclonal antibody (Novus Biological); anti-ARNT/HIF-1β mouse monoclonal antibody (Novus Biological).

Structure (SMILES): O=[N+]([O-])c1c(Nc2cc(F)cc(Cl)c2)ccc2nonc12 [Compound 1, N-(3-chloro-5-fluorophenyl)-4-nitrobenzo[c][1,2,5]oxadiazol-5-amine]
- Expression of HIF-2 target gene (VEGF) (VEGF [1]): reduced in a dose-dependent manner; also recorded: antagonized
- HIF-1α DNA-binding activity (ChIP) (HIF-1α): unaffected
- pIC50 [2]: 7.00
- Effect on HIF-2α/ARNT PAS-B* heterodimerization in AlphaScreen ([2]; triplicate): blocks heterodimer assembly
- HIF-2α DNA-binding activity (ChIP) (HIF-2α [3]): substantially decreased; also recorded: selectively disrupts
- Toxicity to cultured cells (ATP levels as cell viability) (786-0 cells): No overt toxicity; also recorded: not overtly toxic
- ITC protein-ligand interaction, HIF-1α PAS-B (HIF-1α PAS-B): effectively does not bind; also recorded: does not show detectable protein-ligand interaction
- pKd (HIF-1α PAS-B): < 5.30
- Effect on HIF-2α expression (mRNA, protein) (HIF-2α [4]): does not alter; also recorded: no effect
- Expression of PGK1 (PGK1): no effect
- Hypoxic induction of EPO mRNA (EPO): antagonized
- HIF-1α and -2α mRNA levels (HIF-2α or HIF-1α mRNA): no effect
- VEGF protein secretion (VEGF [5]): reduce VEGF protein secretion in a dose-dependent manner
- Effect on AlphaScreen signal of control reaction (GST-ARNT-PAS-B*-FLAG): No effect
- Effect on HIF-1 heterodimerization by Co-IP (HIF-1 heterodimerization): little effect
- Heterodimerization of full length HIF-2 transcription factor (co-IP) [6]: disrupts heterodimerization
